Test results published in patent publication US20100120778A1, “QUINOXALINE-BASED LXR MODULATORS” (Wyeth, priority 2008, published 2010).

Tests used:
human LXRα = target: T1, human LXRα (Homo sapiens, UniProt Q13133); assay: Ligand-binding test procedure for human LXRα (3H T0901317 tracer, flash plates); details: biotinylated hLXRα, tracer 3H T0901317, +4° C. over night
T1 construct: biotin (biotinylated); made in house; host or cells: E. coli
T1 sequence (Q13133 1-447): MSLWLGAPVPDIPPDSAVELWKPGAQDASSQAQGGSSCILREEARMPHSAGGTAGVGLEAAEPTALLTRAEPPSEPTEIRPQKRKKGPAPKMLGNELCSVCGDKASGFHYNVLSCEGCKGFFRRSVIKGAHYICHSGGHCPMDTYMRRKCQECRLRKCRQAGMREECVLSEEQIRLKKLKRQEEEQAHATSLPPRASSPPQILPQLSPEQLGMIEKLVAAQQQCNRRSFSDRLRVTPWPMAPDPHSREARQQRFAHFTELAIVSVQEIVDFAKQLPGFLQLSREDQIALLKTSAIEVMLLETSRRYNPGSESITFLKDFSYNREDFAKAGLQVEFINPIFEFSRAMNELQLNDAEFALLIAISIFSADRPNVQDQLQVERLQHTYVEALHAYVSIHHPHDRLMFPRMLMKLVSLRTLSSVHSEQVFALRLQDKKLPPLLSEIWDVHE
Protocol: II. Ligand-Binding Test Procedure for Human LXRα.
Receptor source: E. coli extract from cells expressing biotinylated hLXRα. Extract was made in a similar buffer as above, but with 50 mM TRIS.
Washed streptavidin and coated flash plates with wash buffer. Diluted receptor extract to give Bmax˜4000 cpm and add to the wells. Wrapped the plates in aluminum foil and stored them at +4° C. over night.
(§1) Made a dilution series in DMSO of the test ligands. Made a 5 nM solution of the radioactive tracer in buffer. Mixed 250 μl diluted tracer with 5 μl of the test ligand from each concentration of the dilution series. Washed the receptor-coated flash plates. Added 200 μl per well of the ligand/radiolabel mixture to the receptor-coated flash plates. Wrapped the plates in aluminum foil and incubate at +4° C. over night.
Aspirated wells, and wash the flashed plates. Sealed the plate. Measured the remaining radioactivity in the plate.

human LXRβ = target: T2, human LXRβ (Homo sapiens, UniProt P55055); assay: Ligand-binding test procedure for human LXRβ (3H T0901317 tracer, flash plates); details: biotinylated hLXRβ, tracer 3H T0901317, +4° C. over night
T2 construct: biotin (biotinylated); made in house; host or cells: E. coli
T2 sequence (P55055 1-460): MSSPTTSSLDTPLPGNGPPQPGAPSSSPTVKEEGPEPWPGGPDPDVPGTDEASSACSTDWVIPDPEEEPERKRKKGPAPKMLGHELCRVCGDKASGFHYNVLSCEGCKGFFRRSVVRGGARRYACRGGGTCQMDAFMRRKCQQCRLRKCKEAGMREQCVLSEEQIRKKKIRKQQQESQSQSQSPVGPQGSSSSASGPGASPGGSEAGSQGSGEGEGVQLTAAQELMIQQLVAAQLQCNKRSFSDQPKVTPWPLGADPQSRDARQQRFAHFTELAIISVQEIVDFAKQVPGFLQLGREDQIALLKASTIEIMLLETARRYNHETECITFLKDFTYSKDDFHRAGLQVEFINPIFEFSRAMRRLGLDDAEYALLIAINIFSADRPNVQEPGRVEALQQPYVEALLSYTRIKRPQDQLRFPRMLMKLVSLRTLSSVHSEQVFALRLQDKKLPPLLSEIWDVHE
Protocol: I. Ligand-Binding Test Procedure for Human LXRβ.
Receptor source: E. coli extracted from cells expressing biotinylated hLXRβ. Extract was made in a similar buffer as above, but with 50 mM TRIS.
Washed streptavidin and coated flash plates with wash buffer. Diluted receptor extract to give Bmax˜4000 cpm and add to the wells. Wrapped the plates in aluminum foil and stored them at +4° C. overnight.
as §1
Aspirated wells, and washed the flashed plates. Sealed the plate.
Measured the remaining radioactivity in the plate.

IC50 (human LXRα) | IC50 (human LXRβ) | Structure (SMILES)
> 1000 nM | 159 nM | Cc1nc2c(C(F)(F)F)cccc2nc1-c1cc(Oc2cc(Cl)cc(S(C)(=O)=O)c2)ccc1Cl [Example 60, 2-{2-chloro-5-[3-chloro-5-(methylsulfonyl)phenoxy]phenyl}-3-methyl-5-(trifluoromethyl)-quinoxaline]
1290 nM | 251 nM | Cc1nc2cccc(C(F)(F)F)c2nc1-c1cccc(Oc2cccc(S(C)(=O)=O)c2)c1 [Example 3, 2-methyl-3-{3-[3-(methylsulfonyl)phenoxy]phenyl}-5-(trifluoromethyl)quinoxaline]
> 1000 nM | 2480 nM | O=S(=O)(CCCO)c1cccc(Oc2cccc(-c3cnc4cccc(C(F)(F)F)c4n3)c2)c1 [Example 11, 3-[(3-{3-[8-(trifluoromethyl)quinoxalin-2-yl]phenoxy}phenyl)sulfonyl]propan-1-ol]
> 1000 nM | 1030 nM | Cc1nc2c(Cl)cccc2nc1Oc1ccc(-c2cccc(S(C)(=O)=O)c2)cc1 [Example 82, 5-chloro-3-methyl-2-{[3′-(methylsulfonyl)biphenyl-4-yl]oxy}quinoxaline]
> 1000 nM | 373 nM | Cc1nc2cccc(C(F)(F)F)c2nc1-c1ccc(-c2cccc(S(C)(=O)=O)c2)cc1 [Example 4, 2-methyl-3-[3′-(methylsulfonyl)biphenyl-4-yl]-5-(trifluoromethyl)quinoxaline]
> 1000 nM | > 1000 nM | CCS(=O)(=O)c1cccc(-c2ccc(Oc3nc4cccc(Cl)c4nc3C)cc2)c1 [Example 83, 5-chloro-2-{[3′-(ethylsulfonyl)biphenyl-4-yl]oxy}-3-methylquinoxaline]
557 nM | 37 nM | Cc1nc2cccc(C(F)(F)F)c2nc1-c1cc(Oc2cccc(S(C)(=O)=O)c2)ccc1Cl [Example 37, 3-{2-chloro-5-[3-(methylsulfonyl)phenoxy]phenyl}-2-methyl-5-(trifluoromethyl)quinoxaline]
366 nM | 29 nM | CCS(=O)(=O)c1cccc(Oc2ccc(Cl)c(-c3nc4c(C(F)(F)F)cccc4nc3C)c2)c1 [Example 61, 3-{2-chloro-5-[3-(ethylsulfonyl)phenoxy]phenyl}-2-methyl-5-(trifluoromethyl)quinoxaline]
> 1000 nM | 1650 nM | CS(=O)(=O)c1cccc(Oc2cccc(-c3cnc4c(Cl)cccc4n3)c2)c1 [Example 8, 5-chloro-2-{3-[3-(methylsulfonyl)phenoxy]phenyl}quinoxaline]
> 1000 nM | – | COc1cccc2nc(-c3ccc(-c4cccc(S(C)(=O)=O)c4)cc3)c(C)nc12 [Example 70, 5-methoxy-3-methyl-2-[3′-(methylsulfonyl)biphenyl-4-yl]quinoxaline]
979 nM | 48 nM | Cc1nc2cccc(C(F)(F)F)c2nc1-c1cc(Oc2cccc(S(=O)(=O)CCCO)c2)ccc1Cl [Example 63, 3-[(3-{4-chloro-3-[3-methyl-8-(trifluoromethyl)quinoxalin-2-yl]phenoxy}phenyl)sulfonyl]-propan-1-ol]
810 nM | 63.5 nM | Cc1nc2c(C(F)(F)F)cccc2nc1-c1cc(Oc2cccc(S(=O)(=O)CCCO)c2)ccc1Cl [Example 58, 3-[(3-{4-chloro-3-[3-methyl-5-(trifluoromethyl)quinoxalin-2-yl]phenoxy}phenyl)sulfonyl]-propan-1-ol]
> 1000 nM | 123 nM | Cc1nc2cccc(C(F)(F)F)c2nc1-c1ccc(-c2cncc(S(C)(=O)=O)c2)cc1 [Example 73, 2-methyl-3-{4-[5-(methylsulfonyl)pyridin-3-yl]phenyl}-5-(trifluoromethyl)quinoxaline]
> 1000 nM | 6400 nM | Cc1nc2c(C(F)(F)F)cccc2nc1-c1ccc(Oc2cccc(S(C)(=O)=O)c2)cc1 [Example 12, 3-methyl-2-{4-[3-(methylsulfonyl)phenoxy]phenyl}-5-(trifluoromethyl)quinoxaline]
> 1000 nM | 1960 nM | CS(=O)(=O)c1cccc(Oc2cccc(-c3cnc4cccc(C(F)(F)F)c4n3)c2)c1 [Example 9, 2-{3-[3-(methylsulfonyl)phenoxy]phenyl}-8-(trifluoromethyl)quinoxaline]
> 1000 nM | 2210 nM | Cc1nc2cccc(Cl)c2nc1-c1cccc(Oc2cccc(S(C)(=O)=O)c2)c1 [Example 10, 5-chloro-2-methyl-3-{3-[3-(methylsulfonyl)phenoxy]phenyl}quinoxaline]
876 nM | 38 nM | Cc1nc2cccc(C(F)(F)F)c2nc1-c1cc(Oc2cccc(S(=O)(=O)C(C)C)c2)ccc1Cl [Example 62, 3-(2-chloro-5-{3-[(1-methylethyl)sulfonyl]phenoxy}phenyl)-2-methyl-5-(trifluoromethyl)quinoxaline]
> 1000 nM | 453 nM | Cc1nc2cccc(C(F)(F)F)c2nc1-c1cc(Oc2cc(Cl)cc(S(C)(=O)=O)c2)ccc1Cl [Example 65, 3-{2-chloro-5-[3-chloro-5-(methylsulfonyl)phenoxy]phenyl}-2-methyl-5-(trifluoromethyl)-quinoxaline]
1890 nM | 745 nM | Cc1nc2c(C(F)(F)F)cccc2nc1-c1cc(Oc2ccc(S(C)(=O)=O)cc2)ccc1Cl [Example 42, 2-{2-chloro-5-[4-(methylsulfonyl)phenoxy]phenyl}-3-methyl-5-(trifluoromethyl)quinoxaline]
249 nM | 32 nM | Cc1nc2c(C(F)(F)F)cccc2nc1-c1cc(Oc2cc(F)cc(S(C)(=O)=O)c2)ccc1Cl [Example 59, 2-{2-chloro-5-[3-fluoro-5-(methylsulfonyl)phenoxy]phenyl}-3-methyl-5-(trifluoromethyl)-quinoxaline]
> 1000 nM | > 1000 nM | CS(=O)(=O)c1cccc(-c2ccc(Oc3cnc4c(Cl)cccc4n3)cc2)c1 [Example 79, 5-chloro-2-{[3′-(methylsulfonyl)biphenyl-4-yl]oxy}quinoxaline]
> 1000 nM | 235 nM | Cc1nc2cccc(Cl)c2nc1-c1ccc(-c2cccc(S(C)(=O)=O)c2)cc1 [Example 68, 5-chloro-2-methyl-3-[3′-(methylsulfonyl)biphenyl-4-yl]quinoxaline]
> 1000 nM | 263 nM | CS(=O)(=O)c1cccc(-c2cccc(Oc3cnc4c(Cl)cccc4n3)c2)c1 [Example 78, 5-chloro-2-{[3′-(methylsulfonyl)biphenyl-3-yl]oxy}quinoxaline]
292 nM | 19.5 nM | Cc1nc2c(C(F)(F)F)cccc2nc1-c1cc(Oc2cccc(S(C)(=O)=O)c2)ccc1Cl [Example 36, 2-{2-chloro-5-[3-(methylsulfonyl)phenoxy]phenyl}-3-methyl-5-(trifluoromethyl)quinoxaline]
> 1000 nM | 1550 nM | Cc1nc2cccc(C(F)(F)F)c2nc1-c1ccc(Oc2cccc(S(C)(=O)=O)c2)cc1 [Example 7, 2-methyl-3-{4-[3-(methylsulfonyl)phenoxy]phenyl}-5-(trifluoromethyl)quinoxaline]
> 1000 nM | > 1000 nM | Cc1nc2c(C(F)(F)F)cccc2nc1-c1ccc(-c2cncc(S(C)(=O)=O)c2)cc1 [Example 74, 3-methyl-2-{4-[5-(methylsulfonyl)pyridin-3-yl]phenyl}-5-(trifluoromethyl)quinoxaline]
> 1000 nM | – | Cc1nc2c(C#N)cccc2nc1-c1ccc(-c2cccc(S(C)(=O)=O)c2)cc1 [Example 71, 3-methyl-2-[3′-(methylsulfonyl)biphenyl-4-yl]quinoxaline-5-carbonitrile]
